For 37 compounds, EC50 and Ki results are on record in patent publication US20110028447A1, “INDAZOLE DERIVATIVES” (Pfizer Inc., priority 2008, published 2011).

Test [1] addresses T1, human CB1 receptor (Homo sapiens, UniProt P21554). In words: [35S] GTPγS binding on membranes of CHO cells expressing the human CB1 receptor (agonism). It is filed as biochemical. Set-up: expressed in transfected cells; membrane preparation. Here is the method:
Membrane preparation: CHO cells expressing the human CB1 receptor were grown to 80% confluence in Ham's F-12 Nutrient Medium (Invitrogen) containing 10% fetal bovine serum (Invitrogen), 1% pen/strep (Invitogen), 1% Nonessential amino acids (Invitrogen) and 500 μg/ml G418 (Invitrogen). Cells were released from flasks using Cell Dissociation Buffer (Invitrogen). Cells were pelleted by centrifugation at 500×G for 5 minutes. Membranes were prepared by resuspending cells in ice cold Assay Buffer (25 mM Tris pH 7.4, 5 mM EDTA, 5 mM EGTA, Complete Protease Inhibitor (Roche)). Cells were lysed with 12 strokes of a dounce homogenizer. Unlysed cells were pelleted by centrifugation at 500×G for 5 minutes. Membranes were pelleted by centrifugation at 25,000×G for 30 minutes. Membranes were resuspended in TEE, dounced 12 strokes, and pelleted a second time at 25,000×G for 30 minutes. Membrane pellet was resuspended in 50 mM Tris pH 7.4, 100 mM NaCl, 3 mM MgCl2, 0.2 mM EGTA, Complete Protease Inhibitor (Roche). Protein concentration was determined using the Micro-BCA Protein Assay Kit (Pierce) using BSA as a standard. Membranes were frozen and stored at −80 degrees Celsius until use.
GTPγS Binding: 40 μl of test compound was incubated with 20 μl of [^35S] GTPγS (Perkin Elmer) (1250 Ci/millimole) and 140 μl of membrane homogenate (5 μg/well) in polypropylene 96-well plates (Corning). Final reaction conditions were 50 mM Tris pH 7.4, 100 mM NaCl, 3 mM MgCl2, 0.2 mM EGTA, 0.04% BSA. After incubation at 37 degrees Celsius for 45 minutes reactions were harvested by vacuum filtration through Unifilter GF/B-96 filters (Perkin Elmer) using a FilterMate Plate Harvester (Perkin Elmer). Filters were rinsed 4 times with ice cold 50 mM Tris pH 7.4, 3 mM MgCl2, 0.2 mM EGTA and dried at 50 degrees Celsius for at least 30 minutes. 40 μl of Microscint-20 (Perkin Elmer) was added per well, and plates were counted using a Top-Count Microplate Scintillation Counter (Perkin Elmer). Binding data were analyzed and EC50 values were calculated using Graph Pad Prism 4.0 Software.
For orientation: Binding of GTPγS marks nucleotide exchange on a G protein.

Test [2] addresses T1, human CB1 receptor. In words: Human CB1 receptor binding, [3H] CP-55,940 displacement on HEK cell membranes. Set-up: expressed in transfected cells; host or cells: HEK cells, doxycycline-induced; membrane preparation. A digest of the protocol:
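Radioligand displacement: [3H] CP-55,940 at […] final, 1 μg membrane protein per well from HEK cells with tetracycline-inducible human CB1, 60 min at room temperature, pH 7.4 Tris/NaCl/MgCl2/EGTA/BSA buffer. 50 μM WIN-55,212-2 set nonspecific binding; bound label filtered, counted, and fitted for EC50 and Ki values.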

Where [3] appears, read: GTPγS EC50, human CB1, CHO cell membranes.
[4] abbreviates: human CB1, CHO cell membranes, read-out: GTPγS EC50.

Read-outs that look alike come from different tables or passages of the source.

T1 sequence (P21554 whole entry): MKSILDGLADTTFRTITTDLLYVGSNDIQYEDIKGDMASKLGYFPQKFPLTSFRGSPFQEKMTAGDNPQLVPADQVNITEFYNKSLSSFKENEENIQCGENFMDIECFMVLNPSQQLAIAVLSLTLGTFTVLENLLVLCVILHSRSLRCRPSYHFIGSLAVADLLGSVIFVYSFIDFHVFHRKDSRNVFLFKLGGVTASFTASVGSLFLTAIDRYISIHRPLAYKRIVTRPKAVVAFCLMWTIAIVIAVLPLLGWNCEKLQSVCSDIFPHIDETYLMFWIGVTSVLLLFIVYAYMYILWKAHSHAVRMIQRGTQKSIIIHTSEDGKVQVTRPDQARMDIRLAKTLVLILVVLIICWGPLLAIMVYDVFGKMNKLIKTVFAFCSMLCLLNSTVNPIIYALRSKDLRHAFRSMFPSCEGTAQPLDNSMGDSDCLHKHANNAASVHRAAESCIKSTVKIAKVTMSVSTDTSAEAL

On to `CC(C)(C)C(NC(=O)c1nn(Cc2ccc(F)cc2)c2ccccc12)C(=O)NCCNC(N)=O` (centres unmarked) [Example 85], for which, at human CB1 receptor [1] (setting [3]), a half-maximal effect (EC50) was put at 16.1 nM. Further, the inhibition constant Ki (in general, a dissociation constant, usually derived from enzyme kinetics or from competition with a known ligand) on human CB1 receptor [2] (CB1 Ki) worked out at 1.72 nM.
The corresponding values for `CC(C)(C)[C@H](NC(=O)c1nn(Cc2ccc(F)cc2)c2ccccc12)C(=O)N[C@H]1C[C@@H](C(N)=O)C1` [Example 398] are 26.6 nM and 5.8 nM.
With `CC(C)(C)C(NC(=O)c1nn(Cc2ccc(F)cc2)c2ccccc12)C(=O)NCCN1CCOCC1` (centres unmarked) [Example 141], the 50% effective concentration (EC50) (as a rule, the concentration that produces a half-maximal response) on human CB1 receptor [1] (setting [4]) came to 41.1 nM. In addition, the Ki on human CB1 receptor [2] (read-out: CB1 Ki) was 9.42 nM.
For `CC(=O)N1CCC(NC(=O)[C@@H](NC(=O)c2nn(Cc3ccc(F)cc3)c3ccccc23)C(C)(C)C)C1` (some centres unmarked) [Example 320], in that order: 63.2 nM and 12 nM.
With `CC(C)(C)[C@H](NC(=O)c1nn(Cc2ccc(F)cc2)c2ccccc12)C(=O)NCC(=O)Nc1cnoc1` [Example 518], the concentration giving a half-maximal response (EC50) at human CB1 receptor [1] (setting [4]) came to 13.6 nM. Moreover, at human CB1 receptor [2] (read-out: CB1 Ki), the inhibitory constant (Ki) worked out at 1.8 nM.
For `CC(C)(C)[C@H](NC(=O)c1nn(Cc2ccc(F)cc2)c2ccccc12)C(=O)NCCc1nnc(C(N)=O)o1` [Example 231], in that order: 5.12 nM and 2.25 nM.
Compound `CC(C)(C)[C@H](NC(=O)c1nn(Cc2ccc(F)cc2)c2ccccc12)C(=O)N1CCC[C@H]1C(N)=O` [Example 292] showed an EC50 at human CB1 receptor [1] (setting [3]) of 19 nM. The affinity on human CB1 receptor [2] (CB1 Ki), expressed as Ki, was 5.25 nM.
For `CC(C)(C)[C@H](NC(=O)c1nn(Cc2ccc(C#N)cc2)c2c(F)cccc12)C(=O)NC[C@H]1C[C@H]1CO` [Example 490], the EC50 on human CB1 receptor [1] (setting [3]) was determined as 63.1 nM. The compound further returned a Ki at human CB1 receptor [2] (CB1 Ki) of 12.4 nM.
For `CC(C)(C)[C@H](NC(=O)c1nn(Cc2ccc(C(F)(F)F)cc2)c2ccccc12)C(N)=O` [Example 254], in that order: 153 nM and 12.3 nM.
For the compound `CC(C)(C)[C@H](NC(=O)c1nn(Cc2ccccc2F)c2ccccc12)C(N)=O` [Example 13], at human CB1 receptor [1] (setting [3]), the concentration giving a half-maximal response (EC50) was 11.9 nM. This compound came in with a Ki on human CB1 receptor [2] (CB1 Ki) of 0.73 nM.
`CC(C)(C)[C@H](NC(=O)c1nn(Cc2ccc(C#N)cc2)c2cc(F)ccc12)C(=O)NCCO` [Example 295]: on human CB1 receptor [1] (setting [3]), the EC50 amounted to 64.3 nM. In addition, the affinity on human CB1 receptor [2] (CB1 Ki), expressed as Ki, was 9.17 nM.
The corresponding values for `Cc1cc2c(C(=O)N[C@H](C(N)=O)C(C)(C)C)nn(Cc3ccc(F)cc3)c2cc1F` [Example 509] are 7.55 nM and 0.45 nM.
The corresponding values for `CC(C)(C)[C@H](NC(=O)c1nn(Cc2ccc(F)cc2)c2ccccc12)C(=O)NC[C@H]1C[C@H]1CO` [Example 492] are 9.71 nM and 1.32 nM.
Take `CC(C)(C)[C@H](NC(=O)c1nn(Cc2ccc(F)cc2)c2c(F)c(F)ccc12)C(=O)NCc1nnc(C(N)=O)o1` [Example 328]: the EC50 on human CB1 receptor [1] (setting [4]) came to 1.7 nM. Further, on human CB1 receptor [2] (read-out: CB1 Ki), the Ki was determined as 0.71 nM.
The corresponding values for `CC(C)(C)[C@H](NC(=O)c1nn(Cc2ccc(F)cc2)c2ccccc12)C(=O)NCCS(=O)(=O)NCC1CC1` [Example 400] are 28.1 nM and 12.3 nM.
Take `CC(C)(C)C(NC(=O)c1nn(Cc2ccc(F)cc2)c2c(F)cccc12)C(=O)NCCCO` (centres unmarked) [Example 178]: the midpoint of the response on human CB1 receptor [1] (setting [3]), the EC50, lay at 1.61 nM. In addition, the affinity at human CB1 receptor [2] (CB1 Ki) corresponds to a Ki of 0.56 nM.
With `CC(C)(C)C(NC(=O)c1nn(Cc2ccc(C#N)cc2F)c2ccccc12)c1nnc(N)o1` (centres unmarked) [Example 95], at human CB1 receptor [1] (setting [4]), the EC50 is 13.7 nM. Besides, the Ki on human CB1 receptor [2] (read-out: CB1 Ki) worked out at 2.22 nM.
For `CC(C)(C)[C@H](NC(=O)c1nn(Cc2ccc(F)cc2)c2ccccc12)C(=O)N1CC(CNS(=O)(=O)C2CC2)C1` [Example 345], in that order: 1.69 nM and 0.61 nM.
As to `CC(C)(C)[C@H](NC(=O)c1nn(Cc2ccc(F)cc2)c2ccccc12)C(=O)NCCNS(=O)(=O)c1ccc(C#N)cc1` [Example 266], at human CB1 receptor [1] (setting [4]), the EC50 turned out to be 4.34 nM. Further, the inhibition constant (Ki) at human CB1 receptor [2] (read-out: CB1 Ki) is 0.94 nM.
`CC(C)(C)[C@H](NC(=O)c1nn(Cc2ccc(F)cc2)c2c(F)cccc12)C(=O)NCCC(N)=O` [Example 476]: at human CB1 receptor [1] (setting [3]), the response was half-maximal at 31.4 nM (EC50). On human CB1 receptor [2] (CB1 Ki), this compound registered a Ki of 6.48 nM.
The corresponding values for `CC(C)(C)[C@H](NC(=O)c1nn(Cc2ccc(F)cc2)c2ccccc12)C(=O)N1CCC(F)(F)C1` [Example 331] are 9.9 nM and 2.2 nM.
As for `CC(C)(C)C(NC(=O)c1nn(Cc2ccc(C#N)cc2)c2c(Cl)cccc12)C(=O)NCCNS(=O)(=O)C1CC1` (centres unmarked) [Example 202], the 50% effective concentration (EC50) at human CB1 receptor [1] (setting [4]) turned out to be 3.07 nM. Also, on human CB1 receptor [2] (read-out: CB1 Ki), the Ki amounted to 0.8 nM.
With `CC(C)(C)[C@H](NC(=O)c1nn(Cc2ccc(F)cc2)c2ccccc12)C(=O)N1CCC(C#N)CC1` [Example 335], on human CB1 receptor [1] (setting [3]), the response was half-maximal at 14.9 nM (EC50). This compound also displayed an inhibitory constant (Ki) on human CB1 receptor [2] (CB1 Ki) of 3.21 nM.
The compound `CC(C)(C)[C@H](NC(=O)c1nn(Cc2ccc(C#N)cc2)c2c(F)cccc12)C(=O)NC(CO)CO` [Example 117] yielded an EC50 at human CB1 receptor [1] (setting [3]) of 168 nM. The affinity at human CB1 receptor [2] (CB1 Ki), expressed as Ki, was 9.54 nM.
At human CB1 receptor [1] (setting [3]), `CC(C)(C)[C@H](NC(=O)c1nn(Cc2ccc(F)cc2)c2ccccc12)C(=O)N1CC(F)(F)C1` [Example 330] came in with a 50% effective concentration (EC50) of 0.41 nM. Further, the affinity on human CB1 receptor [2] (CB1 Ki), expressed as Ki, was 0.2 nM.
On to `CC(C)(C)[C@H](NC(=O)c1nn(Cc2ccc(F)cc2)c2ccccc12)C(=O)NCC(=O)NC[C@@H](O)CO` [Example 523], for which the EC50 on human CB1 receptor [1] (setting [4]) worked out at 2.8 nM. Besides, on human CB1 receptor [2] (read-out: CB1 Ki), the inhibition constant Ki is 5.22 nM.
Regarding `CC(C)(C)[C@H](NC(=O)c1nn(Cc2ccc(C#N)cc2F)c2c(F)c(F)ccc12)C(N)=O` [Example 358], a half-maximal response on human CB1 receptor [1] (setting [3]) (EC50) required 7.46 nM. The same compound displayed a Ki on human CB1 receptor [2] (CB1 Ki) of 4.89 nM.
Compound `CC(C)(C)[C@H](NC(=O)c1nn(Cc2ccc(F)cc2)c2ccccc12)C(=O)N1C[C@@H](O)[C@H](O)C1` [Example 247] came in with an EC50 on human CB1 receptor [1] (setting [3]) of 0.95 nM. Moreover, at human CB1 receptor [2] (CB1 Ki), the Ki came out at 0.65 nM.
In turn, `CC(C)(C)[C@H](NC(=O)c1nn(Cc2ccc(F)cc2)c2c(F)c(F)ccc12)C(=O)NC[C@@H](O)CO` [Example 322] yielded an EC50 on human CB1 receptor [1] (setting [3]) of 109 nM. On human CB1 receptor [2] (CB1 Ki), this compound yielded an inhibition constant (Ki) of 8.89 nM.
The corresponding values for `CC(C)(C)[C@H](NC(=O)c1nn(Cc2ccc(F)cc2)c2ccccc12)C(=O)NC[C@@H](O)[C@H](O)CO` [Example 516] are 44.6 nM and 4.28 nM.
`CC(C)(C)[C@H](NC(=O)c1nn(Cc2ccc(F)cc2)c2ccccc12)C(=O)NCCNC(=O)C1CC1` [Example 103]: at human CB1 receptor [1] (setting [4]), the concentration for a half-maximal effect (EC50) came to 9.08 nM. Also, the Ki on human CB1 receptor [2] (read-out: CB1 Ki) came to 2.68 nM.
As for `CC(C)(C)[C@H](NC(=O)c1nn(Cc2ccc(C#N)cc2)c2ccccc12)C(=O)NCCO` [Example 69], the EC50 at human CB1 receptor [1] (setting [3]) was determined as 183 nM. This compound also returned an inhibition constant (Ki) on human CB1 receptor [2] (CB1 Ki) of 18.8 nM.
The corresponding values for `Cc1nnc(CNC(=O)[C@@H](NC(=O)c2nn(Cc3ccc(C#N)cc3)c3ccccc23)C(C)(C)C)o1` [Example 127] are 136 nM and 32.8 nM.
For `CC(C)(C)[C@H](NC(=O)c1nn(Cc2ccc(C#N)cc2)c2ccccc12)C(=O)NCC(F)(F)F` [Example 308], in that order: 5.55 nM and 2.63 nM.
For the compound `CC(C)(C)[C@H](NC(=O)c1nn(Cc2ccc(F)cc2)c2ccccc12)C(=O)NCCNS(=O)(=O)C1CC1` [Example 99], the EC50 on human CB1 receptor [1] (setting [4]) worked out at 0.5 nM. The inhibitory constant (Ki) on human CB1 receptor [2] (read-out: CB1 Ki) stood at 0.18 nM.
On human CB1 receptor [1] (setting [3]), `CC(C)(C)[C@H](NC(=O)c1nn(Cc2ccc(C#N)cc2F)c2c(F)cccc12)C(=O)NC1CC1` [Example 373] returned a 50% effective concentration (EC50) of 11.6 nM. The same compound registered a Ki at human CB1 receptor [2] (CB1 Ki) of 14.6 nM.
With `CC(C)(C)C(NC(=O)c1nn(Cc2ccc(C#N)cc2)c2c(Cl)cccc12)C(=O)NCCCO` (centres unmarked) [Example 200], a half-maximal response on human CB1 receptor [1] (setting [3]) (EC50) required 35 nM. In addition, at human CB1 receptor [2] (CB1 Ki), the affinity corresponds to a Ki of 4.8 nM.
